Laboratory results taken from patent US20110207926A1, “NOVEL DIHYDROTRIAZINE DERIVATIVE” (HAMARI CHEMICALS, LTD., priority 2008, published 2011).
≈ marks a conversion by molar mass, not a printed value. Like-named read-outs stand apart in the source and are kept apart here.

What was measured:
Experiment in all cases: Bactericidal activity test (MBC measurement)
MRSA ATCC 33591 = format: cell-based, methicillin-resistant Staphylococcus aureus
Description: (§1) Each strain was cultured in Trypticase Soy agar medium for 18 to 20 hr, suspended in 0.1% peptone saline, and prepared to OD 600 nm, 1.0 McFarland. The suspension was further diluted with 0.1% peptone saline to give a test bacteria solution (targeted value; 2×10^7 CFU/mL).
(§2) At 0.5, 1 and 3 min from the start of the reaction, a part of the reaction mixture was sampled and mixed with an equal amount of a neutralizing agent (10% Tween 80, 3% lecithin/aqueous solution) to terminate the bactericidal reaction. The reaction mixture was inoculated to a 96 well microplate dispensed with 180 μL of Tripticase Soy liquid medium in advance, and statically cultured at 37° C. for 20 to 24 hr. Thereafter, the presence or absence of growth was visually evaluated, and the minimum concentration at which growth was not observed was taken as the minimal bactericidal concentration (MBC value) of each action time. The numerical values in the Tables show MBC, the unit is μg/mL, S. aureus means Staphylococcus aureus, MRSA means methicillin-resistant Staphylococcus aureus, E. coli means Escherichia coli, and P. aeruginosa means Pseudomonas aeruginosa.

S. aureus ATCC 6538 = format: cell-based, Staphylococcus aureus
Description: as §1, §2

P. aeruginosa PAO-1 = format: cell-based, Pseudomonas aeruginosa
Description: as §1, §2

P. aeruginosa ATCC 27853 = format: cell-based, Pseudomonas aeruginosa
Description: as §1, §2

E. coli ATCC 25922 = format: cell-based, Escherichia coli
Description: as §1, §2

[1] = MRSA ATCC 33591, action time 0.5 min
[2] = MRSA ATCC 33591, action time 1 min
[3] = MRSA ATCC 33591, action time 3 min
[4] = S. aureus ATCC 6538, action time 0.5 min
[5] = S. aureus ATCC 6538, action time 1 min
[6] = P. aeruginosa ATCC 27853, action time 0.5 min
[7] = Staphylococcus aureus, 0.5 min, MRSA ATCC 33591, action time 0.5 min, read-out: MBC
[8] = Staphylococcus aureus, 1 min, MRSA ATCC 33591, action time 1 min, read-out: MBC
[9] = Staphylococcus aureus, 0.05 h, MRSA ATCC 33591, action time 3 min, read-out: MBC
[10] = Staphylococcus aureus, ATCC6538, 0.5 min, S. aureus ATCC 6538, action time 0.5 min, read-out: MBC
[11] = Staphylococcus aureus, ATCC6538, 1 min, S. aureus ATCC 6538, action time 1 min, read-out: MBC
[12] = Staphylococcus aureus, ATCC6538, 0.05 h, S. aureus ATCC 6538, action time 3 min, read-out: MBC
[13] = Pseudomonas aeruginosa, PAO1, 0.5 min, P. aeruginosa PAO-1, action time 0.5 min, read-out: MBC
[14] = Pseudomonas aeruginosa, PAO1, 1 min, P. aeruginosa PAO-1, action time 1 min, read-out: MBC
[15] = Pseudomonas aeruginosa, PAO1, 0.05 h, P. aeruginosa PAO-1, action time 3 min, read-out: MBC
[16] = Pseudomonas aeruginosa, ATCC27853, 0.5 min, P. aeruginosa ATCC 27853, action time 0.5 min, read-out: MBC
[17] = Pseudomonas aeruginosa, ATCC27853, 1 min, P. aeruginosa ATCC 27853, action time 1 min, read-out: MBC
[18] = Pseudomonas aeruginosa, ATCC27853, 0.05 h, P. aeruginosa ATCC 27853, action time 3 min, read-out: MBC
[19] = Escherichia coli, ATCC25922, 0.5 min, E. coli ATCC 25922, action time 0.5 min, read-out: MBC
[20] = Escherichia coli, ATCC25922, 1 min, E. coli ATCC 25922, action time 1 min, read-out: MBC
[21] = Escherichia coli, ATCC25922, 0.05 h, E. coli ATCC 25922, action time 3 min, read-out: MBC

Compound | MBC (MRSA ATCC 33591; [7]) [µg/mL] | MBC (MRSA ATCC 33591; [8]) [µg/mL] | MBC (MRSA ATCC 33591; [9]) [µg/mL] | MBC (S. aureus ATCC 6538; [10]) [µg/mL] | MBC (S. aureus ATCC 6538; [11]) [µg/mL] | MBC (S. aureus ATCC 6538; [12]) [µg/mL] | MBC (P. aeruginosa ATCC 27853; [16]) [µg/mL] | MBC (P. aeruginosa ATCC 27853; [17]) [µg/mL] | MBC (P. aeruginosa ATCC 27853; [18]) [µg/mL] | MBC (E. coli ATCC 25922; [19]) [µg/mL] | MBC (E. coli ATCC 25922; [20]) [µg/mL] | MBC (E. coli ATCC 25922; [21]) [µg/mL] | other results
1,6-dihydro-6,6-dimethyl-N^4-decyl-N^2-benzyl-N^2-methyl-1,3,5-triazine-2,4-diamine gluconate [Example 3] | – | – | – | – | – | – | – | – | – | – | – | – | MBC (MRSA ATCC 33591; [1]): 25 µg/mL; MBC (MRSA ATCC 33591; [2]): 25 µg/mL; MBC (MRSA ATCC 33591; [3]): 25 µg/mL; MBC (S. aureus ATCC 6538; [4]): 25 µg/mL; MBC (S. aureus ATCC 6538; [5]): 25 µg/mL; MBC (P. aeruginosa PAO-1; P. aeruginosa PAO-1, action time 0.5 min): 25 µg/mL; MBC (P. aeruginosa PAO-1; P. aeruginosa PAO-1, action time 1 min): 25 µg/mL; MBC (P. aeruginosa PAO-1; P. aeruginosa PAO-1, action time 3 min): 25 µg/mL; MBC (P. aeruginosa ATCC 27853; [6]): 25 µg/mL; MBC (P. aeruginosa ATCC 27853; P. aeruginosa ATCC 27853, action time 1 min): 25 µg/mL; MBC (P. aeruginosa ATCC 27853; P. aeruginosa ATCC 27853, action time 3 min): 25 µg/mL
CC(=O)O.CCCCCCCCN(C)C1=NC(C)(C)NC(NCc2ccc(Cl)c(Cl)c2)=N1 [Example 2, N^4-octyl-N^4-methyl-1,6-dihydro-6,6-dimethyl-N^2— (3,4-dichlorobenzyl)-1,3,5-triazine-2,4-diamine acetate] | 25 | 25 | 12.5 | 25 | 25 | 12.5 | 25 | 25 | 12.5 | 12.5 | 6.25 | 6.25 | MBC (P. aeruginosa PAO-1; [13]): 25 µg/mL; MBC (P. aeruginosa PAO-1; [14]): 25 µg/mL; MBC (P. aeruginosa PAO-1; [15]): 12.5 µg/mL
CC(=O)O.CCCCCCCCCNC1=NC(C)(C)NC(N(C)Cc2ccccc2)=N1 [Example 4, 1,6-dihydro-6,6-dimethyl-N^4-nonyl-N^2-benzyl-N^2-methyl-1,3,5-triazine-2,4-diamine acetate] | 25 | – | – | 100 | – | – | 25 | – | – | 12.5 | – | – | MBC (P. aeruginosa PAO-1; [13]): 25 µg/mL
CC(=O)O.CCCCCCCCN(C)C1=NC(C)(C)NC(N(C)Cc2ccccc2)=N1 [Example 6, N^4-octyl-N^4-methyl-1,6-dihydro-6,6-dimethyl-N^2-benzyl-N^2-methyl-1,3,5-triazine-2,4-diamine acetate] | 200 | – | – | > 200 | – | – | 25 | – | – | 25 | – | – | MBC (P. aeruginosa PAO-1; [13]): 25 µg/mL
CCCCCCCCCCCCNC1=NC(N2CCOCC2)=NCN1 [Example 8, 1,6-dihydro-N-dodecyl-4-(morpholin-4-yl)-1,3,5-triazine-2-amine] | 37.5 (≈ 107 µM) | 18.8 (≈ 53.5 µM) | 6.3 (≈ 17.9 µM) | 37.5 (≈ 107 µM) | 25 (≈ 71.1 µM) | 9.4 (≈ 26.7 µM) | 12.5 (≈ 35.6 µM) | 12.5 (≈ 35.6 µM) | 9.4 (≈ 26.7 µM) | 18.8 (≈ 53.5 µM) | 12.5 (≈ 35.6 µM) | 9.4 (≈ 26.7 µM) | –
CC(=O)O.CCCCCCCCCCCCNC1=NC(N2CCN(C)CC2)=NC(C)(C)N1 [Example 10, N-dodecyl-6,6-dimethyl-4-(4-methylpiperazin-1-yl)-1,6-dihydro-1,3,5-triazine-2-amine acetate] | 50 | 50 | 12.5 | 75 | 50 | 12.5 | 25 | 18.8 | 18.8 | 25 | 25 | 25 | –
CC(=O)O.CCCCCCCCCCNC1=NC(N2CCCCC2)=NC(C)(C)N1 [Example 11, N-decyl-6,6-dimethyl-4-(piperidin-1-yl)-1,6-dihydro-1,3,5-triazine-2-amine acetate] | 75 | 62.5 | 31.3 | 50 | 37.5 | 25 | 25 | 25 | 18.8 | 18.8 | 18.8 | 18.8 | –
CCCCCCCCCCNC1=NC(N2Cc3ccccc3C2)=NC(C)(C)N1 [Example 12, N-decyl-4-(1,3-dihydro-2H-isoindol-2-yl)-6,6-dimethyl-1,6-dihydro-1,3,5-triazine-2-amine] | 25 (≈ 65.2 µM) | 12.5 (≈ 32.6 µM) | 6.3 (≈ 16.4 µM) | 25 (≈ 65.2 µM) | 18.8 (≈ 49 µM) | 4.7 (≈ 12.3 µM) | 37.5 (≈ 97.8 µM) | 37.5 (≈ 97.8 µM) | 18.8 (≈ 49 µM) | 18.8 (≈ 49 µM) | 18.8 (≈ 49 µM) | 15.7 (≈ 40.9 µM) | –
CC(=O)O.CCCCCCCCNC1=NC(C)(C)NC(N(CC)Cc2ccccc2)=N1 [Example 13, 1,6-dihydro-6,6-dimethyl-N^4-octyl-N^2-benzyl-N^2-ethyl-1,3,5-triazine-2,4-diamine acetate] | 62.5 | 37.5 | 18.8 | 50 | 25 | 18.8 | 18.8 | 18.8 | 18.8 | 25 | 18.8 | 12.5 | –
CCCCCCCCNC1=NC(C)(C)NC(N(C)CCc2ccccc2)=N1 [Example 14, 1,6-dihydro-6,6-dimethyl-N^4-octyl-N^2-methyl-N^2-(2-phenylethyl)-1,3,5-triazine-2,4-diamine] | 62.5 (≈ 168 µM) | 31.3 (≈ 84.2 µM) | 15.7 (≈ 42.3 µM) | 75 (≈ 202 µM) | 37.5 (≈ 101 µM) | 18.8 (≈ 50.6 µM) | 25 (≈ 67.3 µM) | 18.8 (≈ 50.6 µM) | 12.5 (≈ 33.6 µM) | 25 (≈ 67.3 µM) | 25 (≈ 67.3 µM) | 12.5 (≈ 33.6 µM) | –
CCCCCCCCCCNC1=NC(C)(C)NC(N(C)CCC)=N1 [Example 16, 1,6-dihydro-6,6-dimethyl-N^4-decyl-N^2-methyl-N^2-propyl-1,3,5-triazine-2,4-diamine] | 100 (≈ 296 µM) | 37.5 (≈ 111 µM) | 18.8 (≈ 55.7 µM) | 75 (≈ 222 µM) | 50 (≈ 148 µM) | 25 (≈ 74.1 µM) | 25 (≈ 74.1 µM) | 18.8 (≈ 55.7 µM) | 18.8 (≈ 55.7 µM) | 18.8 (≈ 55.7 µM) | 18.8 (≈ 55.7 µM) | 9.4 (≈ 27.8 µM) | –
CCCCCCCCCCCNC1=NC(C)(C)NC(N(C)Cc2ccc(N)cc2)=N1.Cl.Cl [Example 17, 1,6-dihydro-6,6-dimethyl-N^4-undecyl-N^2-(4-aminobenzyl)-N^2-methyl-1,3,5-triazine-2,4-diamine dihydrochloride] | 18.8 | 12.5 | 6.3 | 25 | 15.7 | 7.8 | 37.5 | 18.8 | 9.4 | 25 | 18.8 | 12.5 | –
CCCCCCCCCCCCCCN(C)C1=NC(C)(C)NC(N)=N1.Cl [Example 18, N^4-tetradecyl-N^4-methyl-1,6-dihydro-6,6-dimethyl-1,3,5-triazine-2,4-diamine hydrochloride] | 18.8 | 9.4 | 4.7 | 18.8 | 12.5 | 4.7 | 18.8 | 12.5 | 9.4 | 12.5 | 12.5 | 6.3 | –
CCCCCCCCN(C)C(=N)NC(=N)NCc1ccc(Cl)c(Cl)c1.Cl [Example 28, N^5-octyl-N^5-methyl-N^1-(3,4-dichlorobenzyl)biguanide hydrochloride] | 50 | 12.5 | 12.5 | 25 | 12.5 | 12.5 | 25 | 25 | 12.5 | 6.25 | 6.25 | 6.25 | MBC (P. aeruginosa PAO-1; [13]): 12.5 µg/mL; MBC (P. aeruginosa PAO-1; [14]): 12.5 µg/mL; MBC (P. aeruginosa PAO-1; [15]): 6.25 µg/mL
N=C(NCCCCCCNC(=N)NC(=N)Nc1ccc(Cl)cc1)NC(=N)Nc1ccc(Cl)cc1.O=C(O)[C@H](O)[C@@H](O)[C@H](O)[C@H](O)CO.O=C(O)[C@H](O)[C@@H](O)[C@H](O)[C@H](O)CO [control, chlorhexidine gluconate, reference compound] | – | – | – | – | – | – | – | – | – | – | – | – | MBC (MRSA ATCC 33591; [1]): >200 µg/mL; MBC (MRSA ATCC 33591; [2]): >200 µg/mL; MBC (MRSA ATCC 33591; [3]): 200 µg/mL; MBC (S. aureus ATCC 6538; [4]): >200 µg/mL; MBC (S. aureus ATCC 6538; [5]): >200 µg/mL; MBC (S. aureus ATCC 6538; S. aureus ATCC 6538, action time 3 min): >200 µg/mL; MBC (P. aeruginosa ATCC 27853; [6]): >200 µg/mL; MBC (E. coli ATCC 25922; E. coli ATCC 25922, action time 0.5 min): 100 µg/mL
